The test system of experiment [1] is chimeric replicon with genotype 3a NS5B. The experiment in a line: microbe, parasite or virus in culture. It counts as cell-based, HCV genotype 3a. The settings on record: Hepatitis C virus, read-out: 3a chimera 5% FBS EC50.
The test system of experiment [2] is chimeric replicon with 2a-J6CF-derived NS5B. Briefly: microbe, parasite or virus in culture. Type of experiment: cell-based, HCV genotype 2a. Conditions: Hepatitis C virus, read-out: 2a chimera 5% FBS EC50.
For experiment [3], the system named is chimeric replicon with genotype 2b NS5B. Briefly: microbe, parasite or virus in culture. It counts as cell-based, HCV genotype 2b. Conditions: Hepatitis C virus, read-out: 2b chimera 5% FBS EC50.
The test system of experiment [4] is HCV NS5B polymerase 1a-H77-C316Y. Briefly: biochemical. The settings on record: ratio of enzyme IC50s, 1a H77-C316Y / 1a H77. Further details: species or system HCV genotype 1a. The gist of the method: (§1)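 E. coli-expressed NS5B (residues 1-570, His-tagged) transcribed a 2.1 kb HCV 1b negative-strand 3′-end RNA template (5 nM) with 20 μM CTP, 20 μM ATP and 0.284 μM [3H]UTP for 3 h at 30° C. Spermine-precipitated RNA was filter-captured and counted by scintillation; IC50 from nonlinear regression.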

The target in experiment [5] is T1, HCV NS5B polymerase 1a-H77-C316Y (Hepatitis C virus genotype 1a, UniProt P27958, C2736Y).
T1 construct: six-histidine tag; made in house; host or cells: E. coli
The experiment in a line: biochemical. Further details: species or system HCV genotype 1a. The gist of the method:
as §1

Experiment [6] concerns the target T2, HCV NS5B polymerase 1a-H77 (Hepatitis C virus genotype 1a, UniProt P27958).
T2 construct: six-histidine tag; made in house; host or cells: E. coli
The experiment in a line: biochemical. Further details: species or system HCV genotype 1a. Conditions: enzyme, strain 1a H77; read-out: HCV Polymerase Strain 1a H77 IC50. The essentials: as §1

The target of experiment [7] is T3, HCV NS5B polymerase 1b BK strain (Hepatitis C virus genotype 1b, UniProt P26663).
T3 construct: six-histidine tag; made in house; host or cells: E. coli
Briefly: HCV NS5B polymerase enzymatic inhibition assay, strain 1b BK. It counts as biochemical. Conditions: enzyme, strain 1b BK; read-out: HCV Polymerase Strain 1b BK IC50. The essentials: as §1

In experiment [8] the test system is chimeric replicon with genotype 4a NS5B. Briefly: microbe, parasite or virus in culture. It counts as cell-based, HCV genotype 4a. The settings on record: Hepatitis C virus, read-out: 4a chimera 5% FBS EC50.
The subject of experiment [9] is HCV 1b-BB7 subgenomic replicon. The experiment in a line: microbe, parasite or virus in culture. Type of experiment: cell-based, HCV genotype 1b. Conditions: Hepatitis C virus, stable replicon. Background: Replicon systems follow genome replication, usually without infectious particles.
In experiment [10] the test system is HCV 1a-H77 subgenomic replicon. The experiment in a line: microbe, parasite or virus in culture. Type of experiment: cell-based, HCV genotype 1a. The settings on record: Hepatitis C virus, stable replicon.
[11] abbreviates: strain 1b BB7, 5% FBS + 40% human plasma, read-out: 1b BB7 5% FBS + 40% Human Plasma EC50.
Setting [12] is: strain 1b BB7, 5% FBS, no human plasma, read-out: 1b BB7 5% FBS EC50.
[13] abbreviates: strain 1b BB7, 5% FBS, read-out: 1b BB7 5% FBS EC50.
Setting [14] is: 5% FBS, absence of human plasma, read-out: Stable Replicon 1a H77 5% FBS EC50.
[15] abbreviates: strain 1a H77, 5% FBS + 40% human plasma, read-out: 1a H77 5% FBS + 40% Human Plasma EC50.
[16] abbreviates: strain 1a H77, 5% FBS, no human plasma, read-out: 1a H77 5% FBS EC50.
The mark [17] stands for this setting: strain 1a H77, 5% FBS, read-out: 1a H77 5% FBS EC50.

pEC50, pIC50: −log10 of the molar value. Where two headings read alike, the source gives them in different places.

T1 sequence (P27958 2421-2990 C2736Y): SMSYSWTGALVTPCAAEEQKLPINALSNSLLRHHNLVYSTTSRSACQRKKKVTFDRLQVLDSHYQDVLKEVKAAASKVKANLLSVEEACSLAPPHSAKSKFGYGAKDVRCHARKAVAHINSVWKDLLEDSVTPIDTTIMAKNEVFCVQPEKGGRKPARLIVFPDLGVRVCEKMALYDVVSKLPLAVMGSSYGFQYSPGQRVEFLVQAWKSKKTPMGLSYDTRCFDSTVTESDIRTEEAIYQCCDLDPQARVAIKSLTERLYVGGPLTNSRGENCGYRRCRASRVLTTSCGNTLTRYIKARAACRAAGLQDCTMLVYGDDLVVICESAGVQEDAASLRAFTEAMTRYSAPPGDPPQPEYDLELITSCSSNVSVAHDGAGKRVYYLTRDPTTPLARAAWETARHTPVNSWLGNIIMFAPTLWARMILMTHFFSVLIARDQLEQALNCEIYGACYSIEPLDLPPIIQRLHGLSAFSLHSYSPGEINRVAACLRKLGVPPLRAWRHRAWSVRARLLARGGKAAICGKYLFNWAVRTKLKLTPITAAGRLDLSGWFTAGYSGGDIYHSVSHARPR
T2 sequence (P27958 2421-2990): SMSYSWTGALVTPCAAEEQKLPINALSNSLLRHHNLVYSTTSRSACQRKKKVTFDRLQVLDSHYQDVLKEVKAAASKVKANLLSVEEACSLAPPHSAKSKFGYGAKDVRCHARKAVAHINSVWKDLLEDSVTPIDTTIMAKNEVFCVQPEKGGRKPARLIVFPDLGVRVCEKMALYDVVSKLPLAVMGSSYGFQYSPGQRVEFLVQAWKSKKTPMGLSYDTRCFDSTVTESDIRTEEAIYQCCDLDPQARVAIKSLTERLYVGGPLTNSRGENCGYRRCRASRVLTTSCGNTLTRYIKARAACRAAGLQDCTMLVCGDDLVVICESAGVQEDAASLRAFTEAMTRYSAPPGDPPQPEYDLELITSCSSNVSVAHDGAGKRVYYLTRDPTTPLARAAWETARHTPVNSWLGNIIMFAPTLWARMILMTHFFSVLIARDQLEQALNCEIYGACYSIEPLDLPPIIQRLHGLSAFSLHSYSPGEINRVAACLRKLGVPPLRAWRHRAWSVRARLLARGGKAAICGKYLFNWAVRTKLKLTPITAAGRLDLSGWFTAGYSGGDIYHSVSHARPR
T3 sequence (P26663 2420-2989): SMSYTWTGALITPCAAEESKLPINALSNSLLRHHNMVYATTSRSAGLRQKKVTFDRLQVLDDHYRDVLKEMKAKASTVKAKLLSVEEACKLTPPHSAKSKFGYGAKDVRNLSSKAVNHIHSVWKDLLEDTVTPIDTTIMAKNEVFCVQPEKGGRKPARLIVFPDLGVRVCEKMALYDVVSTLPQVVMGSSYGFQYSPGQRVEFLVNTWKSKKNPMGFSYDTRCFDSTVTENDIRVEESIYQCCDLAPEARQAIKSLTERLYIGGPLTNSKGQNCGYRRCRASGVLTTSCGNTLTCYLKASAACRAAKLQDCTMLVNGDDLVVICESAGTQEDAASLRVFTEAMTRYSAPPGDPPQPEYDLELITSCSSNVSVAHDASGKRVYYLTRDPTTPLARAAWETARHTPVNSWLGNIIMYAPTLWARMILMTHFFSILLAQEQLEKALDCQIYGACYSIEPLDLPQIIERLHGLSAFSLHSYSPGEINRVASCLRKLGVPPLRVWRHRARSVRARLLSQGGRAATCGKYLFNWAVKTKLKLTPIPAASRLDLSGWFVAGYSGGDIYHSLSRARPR

On to `Cn1ccc2cc(-c3ncc(CN(c4ccc5c(-c6ncc[nH]6)c(-c6ccccc6)oc5c4)S(C)(=O)=O)s3)ccc21` [Example 25, N-[3-(1H-imidazol-2-yl)-2-phenyl-1-benzofuran-6-yl]-N-{[2-(1-methyl-1H-indol-5-yl)-1,3-thiazol-5-yl]methyl}methanesulfonamide], for which the negative-log EC50 (pEC50) – broadly, the EC50 on a negative log10 scale, so that one unit is a factor of ten – in experiment [1] was 7.97; in experiment [2] it was 6.97; in experiment [3], 6.42; in [8], 6.34; in experiment [9] (setting [11]) it was 5.00; in experiment [9] (setting [12]), 8.09. The negative-log EC50 (pEC50) in experiment [9] (setting [13]) is 8.09; in [10] (setting [14]), 6.58; in [10] (setting [15]), 5.00; in experiment [10] (setting [16]), 6.58; in [10] (setting [17]), 6.58. In [4], the “C316Y/1a Fold Resistance” value turned out to be 7 fold. In addition, the figures for the pIC50 in experiment [5], in experiment [6] and in experiment [7] were 7.37, 8.20 and 7.82, respectively.

Turning to `CS(=O)(=O)N(CCCc1nnn[nH]1)c1cc2oc(-c3ccc(F)cc3)c(C3=NOCCN3)c2cc1C1CC1` [Example 180, N-[5-cyclopropyl-3-(5,6-dihydro-4H-1,2,4-oxadiazin-3-yl)-2-(4-fluorophenyl)-1-benzofuran-6-yl]-N-[3-(1H-tetrazol-5-yl)propyl]methanesulfonamide], the negative logarithm of the EC50 (pEC50) in experiment [1] is 6.00; in experiment [2], 6.00; in [3], 6.00; in experiment [8], under 6.00; in [9] (setting [11]), 5.00; in [9] (setting [12]), 6.00. Further, the pEC50 was 6.00 in experiment [9] (setting [13]); 6.00 in [10] (setting [14]); 5.00 in experiment [10] (setting [15]); 6.00 in experiment [10] (setting [16]); 6.00 in [10] (setting [17]). Besides, in [4], the “C316Y/1a Fold Resistance” value was determined as 6 fold. Besides, the negative logarithm of the IC50 (pIC50) (in general, −log10 of the IC50, conventionally taken in molar units) in [5] is 7.47; in experiment [6], 8.22; in experiment [7], 7.49.

Regarding `CCN(CC)CCCN(c1cc2oc(-c3ccc(F)cc3)c(C3=NOCCN3)c2cc1C1CC1)S(C)(=O)=O` [Example 131, N-[5-cyclopropyl-3-(5,6-dihydro-4H-1,2,4-oxadiazin-3-yl)-2-(4-fluorophenyl)-1-benzofuran-6-yl]-N-[3-(diethylamino)propyl]methanesulfonamide], the pEC50 is 6.88 in [1]; 6.42 in experiment [2]; 6.35 in [3]; 6.11 in experiment [8]; 6.99 in experiment [9] (setting [11]); 7.59 in [9] (setting [12]). Moreover, the negative-log EC50 (pEC50) in experiment [9] (setting [13]) is 7.59; in experiment [10] (setting [14]), 6.91; in [10] (setting [15]), 6.46; in experiment [10] (setting [16]), 6.91; in [10] (setting [17]) it was 6.91. The “C316Y/1a Fold Resistance” value in experiment [4] came out at 29 fold. In addition, the negative logarithm of the IC50 (pIC50) was 6.06 in experiment [5], 7.52 in experiment [6] and 6.77 in [7].

For `CS(=O)(=O)N(CCCF)c1cc2oc(-c3ccc(F)cc3)c(-c3ncc[nH]3)c2cc1C1CC1` [Example 85, N-[5-cyclopropyl-2-(4-fluorophenyl)-3-(1H-imidazol-2-yl)-1-benzofuran-6-yl]-N-(3-fluoropropyl)methanesulfonamide], the negative-log EC50 (pEC50) in experiment [1] was 8.19; in experiment [2], 7.18; in experiment [3], 6.88; in [8], 7.13; in experiment [9] (setting [11]) it was 7.02; in [9] (setting [12]), 8.01. Moreover, the pEC50 in experiment [9] (setting [13]) is 8.01; in experiment [10] (setting [14]), 7.66; in experiment [10] (setting [15]), 6.79; in experiment [10] (setting [16]), 7.66; in experiment [10] (setting [17]), 7.66. In addition, the “C316Y/1a Fold Resistance” value in experiment [4] amounted to 20 fold. The pIC50 was 7.06 in experiment [5], 8.35 in [6] and 7.74 in experiment [7].

`CCN(c1cc2oc(-c3ccc(F)cc3)c(-c3ncc[nH]3)c2cc1C1CC1)S(C)(=O)=O` [Example 56, N-[5-cyclopropyl-2-(4-fluorophenyl)-3-(1H-imidazol-2-yl)-1-benzofuran-6-yl]-N-ethylmethanesulfonamide]: the pEC50 in experiment [1] was 8.02; in experiment [2], 7.31; in [3] it was 7.37; in [8], 7.09; in experiment [9] (setting [11]), 7.21; in experiment [9] (setting [12]) it was 7.92. Further, the pEC50 in experiment [9] (setting [13]) is 7.92; in experiment [10] (setting [14]) it was 7.56; in experiment [10] (setting [15]) it was 6.72; in [10] (setting [16]), 7.56; in [10] (setting [17]), 7.56. Also, in experiment [4], the “C316Y/1a Fold Resistance” value was determined as 64 fold. The negative-log IC50 (pIC50) in [5] is 6.66; in experiment [6], 8.46; in experiment [7] it was 7.77.

On to `CS(=O)(=O)N(CCN1CCCC1)c1cc2oc(-c3ccc(F)cc3)c(C3=NOCCN3)c2cc1C1CC1` [Example 128, N-[5-cyclopropyl-3-(5,6-dihydro-4H-1,2,4-oxadiazin-3-yl)-2-(4-fluorophenyl)-1-benzofuran-6-yl]-N-[2-(pyrrolidin-1-yl)ethyl]methanesulfonamide], for which the negative logarithm of the EC50 (pEC50) was 6.67 in experiment [1]; 6.16 in experiment [2]; 6.08 in experiment [3]; under 6.00 in experiment [8]; 6.57 in experiment [9] (setting [11]); 7.36 in experiment [9] (setting [12]). The pEC50 in [9] (setting [13]) is 7.36; in [10] (setting [14]), 6.79; in experiment [10] (setting [15]), 6.42; in experiment [10] (setting [16]), 6.79; in [10] (setting [17]), 6.79. In experiment [4], the “C316Y/1a Fold Resistance” value is on record as 22 fold. Further, the negative logarithm of the IC50 (pIC50) in experiment [5] was 6.00; in [6], 7.34; in experiment [7], 6.18.

Regarding `[2H]C([2H])(CCCCC)N(c1cc2oc(-c3ccc(F)cc3)c(-c3ncc[nH]3)c2cc1C1CC1)S(C)(=O)=O` [Example 113, N-[5-cyclopropyl-2-(4-fluorophenyl)-3-(1H-imidazol-2-yl)-1-benzofuran-6-yl]-N-[(1,1-^2H2)hexyl]methanesulfonamide], the negative-log EC50 (pEC50) is 7.39 in experiment [1]; 6.68 in experiment [2]; 6.55 in experiment [3]; 6.84 in [8]; 6.26 in [9] (setting [11]); 7.55 in [9] (setting [12]). Also, the pEC50 in experiment [9] (setting [13]) was 7.55; in experiment [10] (setting [14]), 7.22; in [10] (setting [15]), 6.19; in [10] (setting [16]), 7.22; in [10] (setting [17]), 7.22. The “C316Y/1a Fold Resistance” value in experiment [4] came out at 22 fold. Further, the values for the pIC50 in experiment [5], in [6] and in experiment [7] were 6.85, 8.19 and 7.80, respectively.

For `CS(=O)(=O)N(CCC1CCOCC1)c1cc2oc(-c3ccc(F)cc3)c(-c3ncc[nH]3)c2cc1C1CC1` [Example 48, N-[5-cyclopropyl-2-(4-fluorophenyl)-3-(1H-imidazol-2-yl)-1-benzofuran-6-yl]-N-[2-(tetrahydro-2H-pyran-4-yl)ethyl]methanesulfonamide], the negative-log EC50 (pEC50) in [1] is 8.00; in experiment [2] it was 7.08; in experiment [3], 7.16; in experiment [8], 7.33; in experiment [9] (setting [11]), 7.12; in [9] (setting [12]), 8.08. In addition, the negative logarithm of the EC50 (pEC50) in experiment [9] (setting [13]) was 8.07; in experiment [10] (setting [14]), 7.94; in experiment [10] (setting [15]) it was 6.83; in experiment [10] (setting [16]) it was 7.94; in [10] (setting [17]), 7.94. For the same compound, the “C316Y/1a Fold Resistance” value in experiment [4] came to 10 fold. The negative logarithm of the IC50 (pIC50) was 7.13 in experiment [5], 8.11 in experiment [6] and 7.64 in [7].

Source of the values: patent US20160355530A1, “HEPATITIS C INHIBITORS AND USES THEREOF” (AbbVie Inc., priority 2010, published 2016).
